These results are taken from BindingDB's records for doi:10.1016/s0960-894x(00)00535-7 (Kyoto University, 2000).

The nature of this experiment: Inhibition of HIV-induced cytopathogenicity in MT-4 cell.
Usually EC50 stands for the concentration at which the effect is half-maximal. `C[C@H](NC(=O)[C@H](CCCN=C(N)N)NC(=O)[C@@H](N)CCCN=C(N)N)C(=O)N[C@H]1CSSC[C@@H](C(=O)N[C@@H](CCCN=C(N)N)C(=O)O)NC(=O)[C@H](CCCNC(N)=O)NC(=O)[C@H](CCCN=C(N)N)NC(=O)[C@H](Cc2ccc(O)cc2)NC(=O)[C@@H]2CCCN2C(=O)[C@@H](CCCCN)NC(=O)[C@H](CCCCN)NC(=O)[C@H](CCCN=C(N)N)NC(=O)[C@H](Cc2ccc(O)cc2)NC1=O` gave an EC50 of 2500 nM.

Compound `C[C@@H]1NC(=O)[C@@H]2CCCN2C(=O)[C@@H](CCCCN)NC(=O)[C@H](CCCCN)NC(=O)[C@H](CCCN=C(N)N)NC(=O)[C@H](Cc2ccc(O)cc2)NC(=O)[C@@H](NC(=O)[C@H](Cc2ccc3ccccc3c2)NC(=O)[C@H](CCCN=C(N)N)NC(=O)[C@@H](N)CCCN=C(N)N)CSSC[C@@H](C(=O)N[C@@H](CCCN=C(N)N)C(=O)O)NC(=O)[C@H](CCCNC(N)=O)NC(=O)[C@H](CCCN=C(N)N)NC1=O` came in with an EC50 of 17 nM.

`C[C@H](NC(=O)[C@@H](N)CCCN=C(N)N)C(=O)N[C@@H](Cc1ccc2ccccc2c1)C(=O)N[C@H]1CSSC[C@@H](C(=O)N[C@@H](CCCN=C(N)N)C(=O)O)NC(=O)[C@H](CCCNC(N)=O)NC(=O)[C@H](CCCN=C(N)N)NC(=O)[C@H](Cc2ccc(O)cc2)NC(=O)[C@@H]2CCCN2C(=O)[C@@H](CCCCN)NC(=O)[C@H](CCCCN)NC(=O)[C@H](CCCN=C(N)N)NC(=O)[C@H](Cc2ccc(O)cc2)NC1=O` [TC-14001] returned an EC50 of 1300 nM.

Compound `NCCCC[C@@H]1NC(=O)[C@H](CCCN=C(N)N)NC(=O)[C@H](Cc2ccc(O)cc2)NC(=O)[C@@H](NC(=O)[C@H](Cc2ccc3ccccc3c2)NC(=O)[C@H](CCCN=C(N)N)NC(=O)[C@@H](N)CCCN=C(N)N)CSSC[C@@H](C(=O)N[C@@H](CCCN=C(N)N)C(=O)O)NC(=O)[C@H](CCCNC(N)=O)NC(=O)[C@H](CCCN=C(N)N)NC(=O)[C@H](Cc2ccc(O)cc2)NC(=O)[C@@H]2CCCN2C(=O)[C@@H](CCCNC(N)=O)NC1=O` [TC-14004] had an EC50 of 4 nM.

For `NCCCC[C@@H]1NC(=O)[C@H](CCCNC(N)=O)NC(=O)[C@H](Cc2ccc(O)cc2)NC(=O)[C@@H](NC(=O)[C@H](Cc2ccc3ccccc3c2)NC(=O)[C@H](CCCN=C(N)N)NC(=O)[C@@H](N)CCCN=C(N)N)CSSC[C@@H](C(=O)N[C@@H](CCCN=C(N)N)C(=O)O)NC(=O)[C@H](CCCNC(N)=O)NC(=O)[C@H](CCCN=C(N)N)NC(=O)[C@H](Cc2ccc(O)cc2)NC(=O)[C@@H]2CCCN2C(=O)[C@@H](CCCCN)NC1=O`, the EC50 was found to be 2.8 nM.

`C[C@@H]1NC(=O)[C@H](Cc2ccc(O)cc2)NC(=O)[C@@H](NC(=O)[C@H](Cc2ccc3ccccc3c2)NC(=O)[C@H](CCCN=C(N)N)NC(=O)[C@@H](N)CCCN=C(N)N)CSSC[C@@H](C(=O)N[C@@H](CCCN=C(N)N)C(=O)O)NC(=O)[C@H](CCCNC(N)=O)NC(=O)[C@H](CCCN=C(N)N)NC(=O)[C@H](Cc2ccc(O)cc2)NC(=O)[C@@H]2CCCN2C(=O)[C@@H](CCCCN)NC(=O)[C@H](CCCCN)NC1=O` [TC-14002] had an EC50 of 9.3 nM.

`NCCCC[C@@H]1NC(=O)[C@H](CCCN=C(N)N)NC(=O)[C@H](Cc2ccc(O)cc2)NC(=O)[C@@H](NC(=O)[C@H](Cc2ccc3ccccc3c2)NC(=O)[C@H](CCCN=C(N)N)NC(=O)[C@@H](N)CCCNC(N)=O)CSSC[C@@H](C(=O)N[C@@H](CCCN=C(N)N)C(=O)O)NC(=O)[C@H](CCCNC(N)=O)NC(=O)[C@H](CCCN=C(N)N)NC(=O)[C@H](Cc2ccc(O)cc2)NC(=O)[C@@H]2CCCN2C(=O)[C@@H](CCCCN)NC1=O`: the midpoint of the response, the EC50, lay at 15 nM.

Turning to `C[C@@H]1NC(=O)[C@H](Cc2ccc(O)cc2)NC(=O)[C@@H]2CCCN2C(=O)[C@@H](CCCCN)NC(=O)[C@H](CCCCN)NC(=O)[C@H](CCCN=C(N)N)NC(=O)[C@H](Cc2ccc(O)cc2)NC(=O)[C@@H](NC(=O)[C@H](Cc2ccc3ccccc3c2)NC(=O)[C@H](CCCN=C(N)N)NC(=O)[C@@H](N)CCCN=C(N)N)CSSC[C@@H](C(=O)N[C@@H](CCCN=C(N)N)C(=O)O)NC(=O)[C@H](CCCNC(N)=O)NC1=O` [TC-14007], the EC50 amounted to 18 nM.

In turn, `NCCCC[C@@H]1NC(=O)[C@H](CCCN=C(N)N)NC(=O)[C@H](Cc2ccc(O)cc2)NC(=O)[C@@H](NC(=O)[C@H](Cc2ccc3ccccc3c2)NC(=O)[C@H](CCCN=C(N)N)NC(=O)[C@@H](N)CCCN=C(N)N)CSSC[C@@H](C(=O)N[C@@H](CCCN=C(N)N)C(=O)O)NC(=O)[C@H](CCCNC(N)=O)NC(=O)[C@H](CCCNC(N)=O)NC(=O)[C@H](Cc2ccc(O)cc2)NC(=O)[C@@H]2CCCN2C(=O)[C@@H](CCCCN)NC1=O` [TC-14003] returned an EC50 of 15 nM.

The compound `C[C@@H]1NC(=O)[C@H](CCCN=C(N)N)NC(=O)[C@H](Cc2ccc(O)cc2)NC(=O)[C@@H](NC(=O)[C@H](Cc2ccc3ccccc3c2)NC(=O)[C@H](CCCN=C(N)N)NC(=O)[C@@H](N)CCCN=C(N)N)CSSC[C@@H](C(=O)N[C@@H](CCCN=C(N)N)C(=O)O)NC(=O)[C@H](CCCNC(N)=O)NC(=O)[C@H](CCCN=C(N)N)NC(=O)[C@H](Cc2ccc(O)cc2)NC(=O)[C@@H]2CCCN2C(=O)[C@@H](CCCCN)NC1=O` showed an EC50 of 47 nM.

Consider `CC(N)C(=O)N[C@@H](CCCN=C(N)N)C(=O)N[C@@H](Cc1ccc2ccccc2c1)C(=O)N[C@H]1CSSC[C@@H](C(=O)N[C@@H](CCCN=C(N)N)C(=O)O)NC(=O)[C@H](CCCNC(N)=O)NC(=O)[C@H](CCCN=C(N)N)NC(=O)[C@H](Cc2ccc(O)cc2)NC(=O)[C@@H]2CCCN2C(=O)[C@@H](CCCCN)NC(=O)[C@H](CCCCN)NC(=O)[C@H](CCCN=C(N)N)NC(=O)[C@H](Cc2ccc(O)cc2)NC1=O` (some centres undefined), for which the EC50 worked out at 56 nM.

As for `NCCCC[C@@H]1NC(=O)[C@H](CCCN=C(N)N)NC(=O)[C@H](Cc2ccc(O)cc2)NC(=O)[C@@H](NC(=O)[C@H](Cc2ccc3ccccc3c2)NC(=O)[C@H](CCCN=C(N)N)NC(=O)[C@@H](N)CCCN=C(N)N)CSSC[C@@H](C(=O)N[C@@H](CCCNC(N)=O)C(=O)O)NC(=O)[C@H](CCCNC(N)=O)NC(=O)[C@H](CCCN=C(N)N)NC(=O)[C@H](Cc2ccc(O)cc2)NC(=O)[C@@H]2CCCN2C(=O)[C@@H](CCCCN)NC1=O` [TC-14006], it took 880 nM to reach a half-maximal effect (EC50).

`NCCCC[C@@H]1NC(=O)[C@H](CCCN=C(N)N)NC(=O)[C@H](Cc2ccc(O)cc2)NC(=O)[C@@H](NC(=O)[C@H](Cc2c[nH]c3ccccc23)NC(=O)[C@H](CCCN=C(N)N)NC(=O)[C@@H](N)CCCN=C(N)N)CSSC[C@@H](C(=O)N[C@@H](CCCN=C(N)N)C(=O)O)NC(=O)[C@H](CCCNC(N)=O)NC(=O)[C@H](CCCN=C(N)N)NC(=O)[C@H](Cc2ccc(O)cc2)NC(=O)[C@@H]2CCCN2C(=O)[C@@H](CCCCN)NC1=O` came in with an EC50 of 8.3 nM.

With `C[C@H](NC(=O)[C@@H]1CSSC[C@H](NC(=O)[C@H](Cc2ccc3ccccc3c2)NC(=O)[C@H](CCCN=C(N)N)NC(=O)[C@@H](N)CCCN=C(N)N)C(=O)N[C@@H](Cc2ccc(O)cc2)C(=O)N[C@@H](CCCN=C(N)N)C(=O)N[C@@H](CCCCN)C(=O)N[C@H](CCCCN)C(=O)N2CCC[C@H]2C(=O)N[C@@H](Cc2ccc(O)cc2)C(=O)N[C@@H](CCCN=C(N)N)C(=O)N[C@@H](CCCNC(N)=O)C(=O)N1)C(=O)O`, the midpoint of the response, the EC50, lay at 400 nM.
